# Measurements reported in patent publication US20240099214A1, “PLANT DEFENCE GENE EXPRESSION” (UPL Corporation Limited, priority 2021, published 2024).
# Key:
# Format in all cases: in vivo, Tomato ecotype corbarino
# set of defense genes = experiment: qRT-PCR gene expression of the set of tested defence genes in tomato leaves (relative to a-tubulin, compared to water treatment); conditions: for gene expression of the set of defense genes compared to TSWV treatment: 48 hours from the treatment, tomato leaves
# Procedure: (§1) Tomato ecotype “corbarino” reported to be susceptible to TSWV infection was used in the experiment. Plants were grown in pots in a climatic chamber with a photoperiod of 16/8 hour at 25° C.
# (§2) The viral strain (TSWV PV PV-0393) was utilized in the experiment. The virus was mechanically inoculated and propagated on tomato “corbarino”. The inoculum was prepared in an ice-cooled mortar grounding 1 gr of infected tomato tissue in 10 ml of Na-phosphate buffer 0.01M. The fresh prepared inoculum was stored in ice before use. Tomato plants at BBCH16 were dusted with Carborundum 600 mesh and selected leaves were rubbed with some droplets of inoculum. After 5 min. plants were sprayed with sterile water to remove the excess of inoculum and preserve the cell turgor.
# (§3) Four treatments were compared: i) Mock inoculated; ii) TSWV; iii) 0.25% Laminarin; iv) 0.25% Laminarin+TSWV. In the last treatment the virus was inoculated 24 hrs after the laminarin application.
# Total RNA was extracted from systemic infected tomato leaves by using the Quick-RNA Plant Kit (Zymo Research) following the manufacturer instructions. […] The RNA concentration was quantified by measuring the absorbance at 260 nm using a Nanodrop 2000 (Thermofisher). The purity of all of the RNA samples was assessed at an absorbance ratio of OD260/280 and OD260/230, while its structural integrity was checked by agarose gel electrophoresis. […]
# qPCR reactions were performed with BioRad (Applied Biosystems, Foster City, CA, USA) using SYBR R Green. […] Reactions were run using the cycling parameter described previously (Reid et al., 2006) and the qPCR data were analyzed by the Ct method (Pfaffl, 2001). In order to analyze the qPCR data, a-tubulin gene was used as housekeeping to determine the relative expression level of the other genes analyzed in this work. […] The corresponding qPCR efficiencies (E) were calculated for every primer pair with the software 7300 System SDS software (Applied Biosystems, Foster City, CA, USA) according to the equation E=(10−1/slope−1)×100 (Rutledge and Stewart, 2008). […]
# [1] = test system: 1-aminocryclopropane-1-carboxylate oxidase-like protein (gene 6, Solyc11g072100.1); experiment: qRT-PCR expression of gene 6 in tomato leaves; design: key: relative expression normalized to a-tubulin housekeeping gene
# Procedure: as §1, §2, §3
# (§4) Total RNA was extracted from systemic infected tomato leaves by using the Quick-RNA Plant Kit (Zymo Research) following the manufacturer instructions. The extractions were carried out using three plants after 12 h, 24 h, 48 h, 72 h, 7 days after inoculation. Leaves were instantly frozen in liquid nitrogen after cutting to avoid any deterioration of the sample as well as any defense reaction. The RNA concentration was quantified by measuring the absorbance at 260 nm using a Nanodrop 2000 (Thermofisher). The purity of all of the RNA samples was assessed at an absorbance ratio of OD260/280 and OD260/230, while its structural integrity was checked by agarose gel electrophoresis. Only high-quality RNA with OD 260/280 and OD 260/230>2 was used for subsequent steps. Single-stranded cDNA was synthesized from 1 μg of total RNA using an iScript™ Select cDNA Synthesis Kit and random hexamers as primers (Bio-Rad, Milan, Italy), according to the manufacturer's instructions. Three biological replicates were created from the 3 leaves collected to test 15 genes. Alpha tubulin was used as reference gene.
# (§5) qPCR reactions were performed with BioRad (Applied Biosystems, Foster City, CA, USA) using SYBR R Green. Each reaction was performed in 20 μl containing 10 μl of 2× Power SYBR Green PCR Master Mix (Life Technologies), 0.2-0.3 μM primers and cDNA samples diluted 1:20. Each qPCR reaction was performed in triplicate. Reactions were run using the cycling parameter described previously (Reid et al., 2006) and the qPCR data were analyzed by the Ct method (Pfaffl, 2001). In order to analyze the qPCR data, a-tubulin gene was used as housekeeping to determine the relative expression level of the other genes analyzed in this work. For the determination of qPCR efficiency of each primer pairs, a standard curve was performed using the following cDNA dilutions: 1:4, 1:16, 1:64; 1:256 and 1:1024. Every measurement was made in triplicate. The corresponding qPCR efficiencies (E) were calculated for every primer pair with the software 7300 System SDS software (Applied Biosystems, Foster City, CA, USA) according to the equation E=(10−1/slope−1)×100 (Rutledge and Stewart, 2008).
# (§6) The significance of the differences between the gene expressions levels were compared by one-way ANOVA (p=0.01) and the means were separated by Tukey post-hoc test using SPSS ver.26 ([…]).
# [2] = test system: Nac transcription factor 29-like (gene 8, Solyc05g007770.2); experiment: qRT-PCR expression of gene 8 in tomato leaves; design: key: relative expression normalized to a-tubulin housekeeping gene
# Procedure: as §1, §2, §3, §4, §5, §6
substance,measurement,setting,value
laminarin,gene expression of the set of defense genes compared to TSWV treatment,set of defense genes; 0.25% laminarin + TSWV inoculated 24 hrs after laminarin application,activates the set of defense genes at higher level compared to TSWV
same,gene expression of the set of defense genes compared to TSWV treatment,set of defense genes; 0.25% laminarin alone,activates the set of defense genes at higher level compared to TSWV
same,"gene expression of the tested genes, overall",set of defense genes; 72 hr,clear evidence of the laminarin effects
same,RQ1,"[1]; 12 hr, Laminarin alone",0.9088
same,RQ2,"[1]; 12 hr, Laminarin alone",0.971
same,RQ3,"[1]; 12 hr, Laminarin alone",0.8924
same,RQ mean,"[1]; 12 hr, Laminarin alone",0.9241
same,RQ1,"[1]; 24 hr, Laminarin + virus",13.422
same,RQ2,"[1]; 24 hr, Laminarin + virus",17.528
same,RQ3,"[1]; 24 hr, Laminarin + virus",12.610
same,RQ mean,"[1]; 24 hr, Laminarin + virus",14.520
same,RQ1,"[1]; 24 hr, Laminarin alone",16.709
same,RQ2,"[1]; 24 hr, Laminarin alone",18.603
same,RQ3,"[1]; 24 hr, Laminarin alone",0.8182
same,RQ mean,"[1]; 24 hr, Laminarin alone",14.498
same,RQ1,"[1]; 48 hr, Laminarin + virus",14.823
same,RQ2,"[1]; 48 hr, Laminarin + virus",17.395
same,RQ3,"[1]; 48 hr, Laminarin + virus",0.9742
same,RQ mean,"[1]; 48 hr, Laminarin + virus",13.987
same,RQ1,"[1]; 48 hr, Laminarin alone",16.033
same,RQ2,"[1]; 48 hr, Laminarin alone",16.927
same,RQ3,"[1]; 48 hr, Laminarin alone",10.675
same,RQ mean,"[1]; 48 hr, Laminarin alone",14.545
same,RQ1,"[1]; 72 hr, Laminarin + virus",26.404
same,RQ2,"[1]; 72 hr, Laminarin + virus",20.406
same,RQ3,"[1]; 72 hr, Laminarin + virus",19.154
same,RQ mean,"[1]; 72 hr, Laminarin + virus",21.988
same,RQ1,"[1]; 72 hr, Laminarin alone",27.013
same,RQ2,"[1]; 72 hr, Laminarin alone",20.615
same,RQ3,"[1]; 72 hr, Laminarin alone",19.604
same,RQ mean,"[1]; 72 hr, Laminarin alone",22.410
same,RQ1,"[2]; 12 hr, Laminarin + virus",0.9892
same,RQ2,"[2]; 12 hr, Laminarin + virus",10.375
same,RQ3,"[2]; 12 hr, Laminarin + virus",10.132
same,RQ mean,"[2]; 12 hr, Laminarin + virus",10.133
same,RQ1,"[2]; 12 hr, Laminarin alone",0.8695
same,RQ2,"[2]; 12 hr, Laminarin alone",0.9166
same,RQ3,"[2]; 12 hr, Laminarin alone",10.042
same,RQ mean,"[2]; 12 hr, Laminarin alone",0.9301
same,RQ1,"[2]; 24 hr, Laminarin + virus",11.335
same,RQ2,"[2]; 24 hr, Laminarin + virus",11.617
same,RQ3,"[2]; 24 hr, Laminarin + virus",0.9361
same,RQ mean,"[2]; 24 hr, Laminarin + virus",10.771
same,RQ1,"[2]; 24 hr, Laminarin alone",12.571
same,RQ2,"[2]; 24 hr, Laminarin alone",13.299
same,RQ3,"[2]; 24 hr, Laminarin alone",11.584
same,RQ mean,"[2]; 24 hr, Laminarin alone",12.485
same,RQ1,"[2]; 48 hr, Laminarin + virus",13.157
same,RQ2,"[2]; 48 hr, Laminarin + virus",0.7588
same,RQ3,"[2]; 48 hr, Laminarin + virus",11.274
same,RQ mean,"[2]; 48 hr, Laminarin + virus",10.673
same,RQ1,"[2]; 48 hr, Laminarin alone",12.258
same,RQ2,"[2]; 48 hr, Laminarin alone",0.9690
same,RQ3,"[2]; 48 hr, Laminarin alone",15.958
same,RQ mean,"[2]; 48 hr, Laminarin alone",12.635
same,RQ1,"[2]; 72 hr, Laminarin + virus",48.220
same,RQ2,"[2]; 72 hr, Laminarin + virus",49.687
same,RQ3,"[2]; 72 hr, Laminarin + virus",22.018
same,RQ mean,"[2]; 72 hr, Laminarin + virus",39.975
same,RQ1,"[2]; 72 hr, Laminarin alone",24.387
same,RQ2,"[2]; 72 hr, Laminarin alone",43.671
same,RQ3,"[2]; 72 hr, Laminarin alone",32.797
same,RQ mean,"[2]; 72 hr, Laminarin alone",33.618
